Consider seven compounds from ChEMBL document CHEMBL1201862, “PubChem BioAssay data set” (2004).

Among the test systems are CCRF-CEM; HCC 2998; HOP-62; K562; KM12; MDA-MB-435; MOLT-4; Malme-3M; NCI-H226; NCI-H460; NCI-H522; NCI/ADR-RES; OVCAR-4; OVCAR-8; RPMI-8226; RXF 393; SF-295; SNB-75; T47D; UACC-257.
Common to all, as to assay: inhibition of tumour cell growth, NCI panel, 48 h

Structures can show the parent of a compound that is named as a salt.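 Compound exposure: 48 hours, 5 concentrations, 96-well plates. Abbreviation: GI50, concentration required for 50% inhibition of growth.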 Activity calls are given as the source filed them. Cut-off read from the data, not from the text of the source: active = GI50 up to about 1.1 µM and inactive = higher. Bounds are passed on as bounds.

In the case of `CN1CCN([C@H]2C[C@H]3[C@@H]4CC=C5C[C@@H](O)CC[C@]5(C)[C@H]4CC[C@]3(C)[C@H]2O)CC1`, the GI50 in the experiment on CCRF-CEM is 25 µM (inactive); in the experiment on HCC 2998 it was 44.2 µM (inactive); in the experiment on HOP-62, > 51.9 µM (inactive); in the experiment on K562, 19 µM (inactive); in the experiment on KM12, > 53.8 µM (inactive); in the experiment on MDA-MB-435 it was 16.9 µM (inactive). The GI50 with MOLT-4 was 49.7 µM (inactive); with Malme-3M it was > 43.2 µM (inactive); in the experiment with NCI-H226 it was > 100 µM (inactive); in the experiment on NCI-H460, > 42.7 µM (inactive); in the experiment with NCI-H522 it was > 100 µM (inactive); with NCI/ADR-RES it was > 87.7 µM (inactive). For the same compound, the GI50 was > 41.1 µM (inactive) in the experiment with OVCAR-4; > 42.8 µM (inactive) in the experiment with OVCAR-8; 23.9 µM (inactive) in the experiment on RPMI-8226; 16.9 µM (inactive) in the experiment with RXF 393; > 78.3 µM (inactive) in the experiment with SF-295; > 49.2 µM (inactive) with SNB-75. Moreover, the GI50 in the experiment on T47D was > 47.4 µM (inactive); in the experiment on UACC-257, > 49 µM (inactive).
For the compound `OC1C[C@H](c2ccccc2)C2(C(O)c3ccccc3C2O)[C@@H](c2ccccc2)C1` (stereo not given in full), the GI50 is 99.1 µM (inactive) with CCRF-CEM; > 100 µM (inactive) with HCC 2998; > 100 µM (inactive) in the experiment with HOP-62; > 100 µM (inactive) with K562; > 100 µM (inactive) in the experiment on KM12; > 100 µM (inactive) in the experiment on MDA-MB-435. The GI50 with MOLT-4 is > 100 µM (inactive); in the experiment with Malme-3M, > 100 µM (inactive); in the experiment on NCI-H226 it was > 100 µM (inactive); with NCI-H460 it was > 100 µM (inactive); in the experiment with NCI-H522, 32.4 µM (inactive); in the experiment with NCI/ADR-RES it was 14.3 µM (inactive). Further, the GI50 in the experiment on OVCAR-4 is > 100 µM (inactive); in the experiment with OVCAR-8, > 100 µM (inactive); with RPMI-8226, 83.2 µM (inactive); with RXF 393, > 100 µM (inactive); in the experiment on SF-295 it was > 100 µM (inactive); in the experiment on SNB-75, 53.7 µM (inactive). Moreover, the GI50 in the experiment with T47D was > 100 µM (inactive); in the experiment with UACC-257 it was 32.2 µM (inactive).
On to `N#C/C(=C/NC(=S)NCc1ccccc1)C(N)=O`, for which the GI50 with CCRF-CEM, in the experiment with HCC 2998, in the experiment on HOP-62, in the experiment with K562, in the experiment with KM12 and in the experiment with MDA-MB-435 was > 100 µM (inactive) in each case. For the same compound, the GI50 in the experiment on MOLT-4, with Malme-3M, in the experiment with NCI-H226, with NCI-H460, in the experiment with NCI-H522 and in the experiment on NCI/ADR-RES was > 100 µM (inactive) in each case. The GI50 in the experiment with OVCAR-4, in the experiment with OVCAR-8, with RPMI-8226, with RXF 393, with SF-295 and in the experiment with SNB-75 was > 100 µM (inactive) each time. In addition, the GI50 with T47D and with UACC-257 was > 100 µM (inactive) throughout.
Turning to `O=C1N(CN2CCOCC2)CN(CN2CCOCC2)C(=O)N1Cc1ccccc1`, the GI50 with CCRF-CEM was 28.7 µM (inactive); with HCC 2998, 30.9 µM (inactive); in the experiment with HOP-62, 35.4 µM (inactive); in the experiment on K562 it was 24 µM (inactive); in the experiment on KM12, 23.8 µM (inactive); with MDA-MB-435 it was 20 µM (inactive). Also, the GI50 is 20.1 µM (inactive) with MOLT-4; 15.2 µM (inactive) in the experiment with Malme-3M; 37.1 µM (inactive) in the experiment on NCI-H226; 32.6 µM (inactive) in the experiment on NCI-H460; 13.3 µM (inactive) in the experiment on NCI-H522; 23.1 µM (inactive) with NCI/ADR-RES. The GI50 is 42.7 µM (inactive) with OVCAR-4; 19.2 µM (inactive) in the experiment with OVCAR-8; 26.5 µM (inactive) in the experiment with RPMI-8226; 17.7 µM (inactive) in the experiment on RXF 393; > 100 µM (inactive) in the experiment on SF-295; 25.5 µM (inactive) with SNB-75. The GI50 is 30.3 µM (inactive) in the experiment with T47D and 21.7 µM (inactive) with UACC-257.
Take `CCCC(=O)Nc1cc(C(=O)N2C[C@H]3C[C@@]34C2=CC(=O)c2[nH]cc(C)c24)n(COC)c1`: the GI50 with CCRF-CEM was 0.014 µM (active); in the experiment with HCC 2998, 0.122 µM (active); in the experiment on HOP-62 it was 0.728 µM (active); in the experiment with K562, 0.131 µM (active); in the experiment with KM12, 0.449 µM (active); with MDA-MB-435 it was 0.19 µM (active). Moreover, the GI50 was 0.00879 µM (active) in the experiment with MOLT-4; 0.105 µM (active) with Malme-3M; 0.475 µM (active) with NCI-H226; 0.317 µM (active) in the experiment with NCI-H460; 0.0553 µM (active) in the experiment with NCI-H522; 0.656 µM (active) in the experiment with NCI/ADR-RES. Further, the GI50 with OVCAR-4 is 0.783 µM (active); in the experiment with OVCAR-8, 0.0973 µM (active); with RPMI-8226 it was 0.71 µM (active); in the experiment with RXF 393 it was 0.164 µM (active); with SF-295, 0.735 µM (active); in the experiment on SNB-75, 0.248 µM (active). Also, the GI50 in the experiment on T47D is 0.109 µM (active); in the experiment with UACC-257, 0.171 µM (active).
As for `CS(=O)(=O)OCCN(CCOS(C)(=O)=O)c1ccc(/C=N/c2ccc(-c3csc(COc4ccccc4)n3)cc2)cc1`, the GI50 is 0.587 µM (active) with CCRF-CEM; 2.26 µM (inactive) in the experiment with HCC 2998; 1.32 µM (inactive) with HOP-62; 5.02 µM (inactive) with K562; 4.78 µM (inactive) in the experiment on KM12; 12.4 µM (inactive) in the experiment on MDA-MB-435. For the same compound, the GI50 in the experiment on MOLT-4 was 0.271 µM (active); with Malme-3M, 12.8 µM (inactive); in the experiment on NCI-H226 it was 2.66 µM (inactive); in the experiment on NCI-H460, 0.0708 µM (active); with NCI-H522 it was 0.295 µM (active); in the experiment on NCI/ADR-RES, 10.1 µM (inactive). Moreover, the GI50 is 14.8 µM (inactive) in the experiment with OVCAR-4; 6.17 µM (inactive) with OVCAR-8; 4.47 µM (inactive) in the experiment on RPMI-8226; 0.461 µM (active) in the experiment with RXF 393; 0.807 µM (active) with SF-295; 1.9 µM (inactive) with SNB-75. Moreover, the GI50 in the experiment with T47D is 1.32 µM (inactive); in the experiment with UACC-257, 10.2 µM (inactive).
With `O=C1c2c(O)cccc2-c2nn(CCNCCO)c3ccc(NCCNCCO)c1c23` [LOSOXANTRONE HYDROCHLORIDE], the GI50 in the experiment on CCRF-CEM was < 0.01 µM (active); in the experiment on HCC 2998, 0.137 µM (active); in the experiment with HOP-62, < 0.0169 µM (active); in the experiment with K562, 0.238 µM (active); in the experiment with KM12, 0.59 µM (active); in the experiment with MDA-MB-435, 0.53 µM (active). Moreover, the GI50 in the experiment with MOLT-4 was < 0.01 µM (active); with Malme-3M, 0.123 µM (active); in the experiment with NCI-H226, < 0.0171 µM (active); in the experiment with NCI-H460, < 0.01 µM (active); with NCI-H522, 0.0228 µM (active); in the experiment on NCI/ADR-RES it was 8.28 µM (inactive). Moreover, the GI50 is 0.605 µM (active) in the experiment on OVCAR-4; 0.159 µM (active) with OVCAR-8; 0.432 µM (active) with RPMI-8226; 0.188 µM (active) in the experiment with RXF 393; 0.0236 µM (active) in the experiment with SF-295; 0.047 µM (active) with SNB-75. For the same compound, the GI50 in the experiment on T47D was 0.105 µM (active); with UACC-257, 1.6 µM (inactive).
